# Source: article PMC6301270 (MedChemComm, 2018)
# Test system: T.b. brucei (strain 427) bloodstream form parasites
# Assay: T.b. brucei single concentration screen (10 μM)
# Details: Trypanosoma brucei, read-out: T.b.brucei % viability (10 µM)
row,Compound,viability at 10 µM [%]
1,"CNCCC(Oc1ccc(C(F)(F)F)cc1)c1ccccc1 (centres unmarked) [Compound 33, CNCCC(Oc1ccc(cc1)C(F)(F)F)c2ccccc2]",2.4
2,"CN1CCCC1CCO[C@](C)(c1ccccc1)c1ccc(Cl)cc1 (some centres unmarked) [Compound 62, ClC1=CC=C([C@@](C)(C2=CC=CC=C2)OCCC3N(C)CCC3)C=C1]",2
3,"COc1cccc(-n2nnnc2S(C)(=O)=O)c1 [Compound 63, COc1cccc(c1)n2nnnc2S(=O)(=O)C]",103
4,"CC(C)(C)c1cnc(NC(=O)c2ccccc2O)s1 [Compound 64, CC(C)(C)c1cnc(NC(=O)c2ccccc2O)s1]",77
5,"Nc1nc2cc(-c3cncc(Oc4ccc(F)cc4)c3)ccc2[nH]1 [Compound 65, Nc1nc2ccc(cc2[nH]1)c3cncc(Oc4ccc(F)cc4)c3]",14
6,"O=C(Nc1ccc(N2CCNCC2)cc1)c1ccn2ncc(-c3cccc(Cl)c3)c2n1 [Compound 67, Clc1cccc(c1)c2cnn3ccc(nc23)C(=O)Nc4ccc(cc4)N5CCNCC5]",1
7,"O=C(NCCc1ccccc1)c1cc(-c2cccnc2)cnc1NCC1CC1 [Compound 68, O=C(NCCc1ccccc1)c2cc(cnc2NCC3CC3)c4cccnc4]",79
8,"Cc1[nH]c2ccccc2c1C(c1cccs1)N1CCN(C)CC1 (centres unmarked) [Compound 69, CN1CCN(CC1)C(c2cccs2)c3c(C)[nH]c4ccccc34]",29
9,"O=S(=O)(c1ccc(Cl)cc1)N1CCN(C(=S)NCc2ccco2)CC1 [MMV000858, Clc1ccc(cc1)S(=O)(=O)N2CCN(CC2)C(=S)NCc3occc3]",97
10,"COc1cccc2c(C)nc(N=C(N)N)nc12 [MMV000907, COc1cccc2c(C)nc(N=C(N)N)nc12]",79
11,"CCCS(=O)(=O)N1CCC(CO)(Cc2ccccc2C(F)(F)F)CC1 [MMV001059, CCCS(=O)(=O)N1CCC(CO)(Cc2ccccc2C(F)(F)F)CC1]",87
12,"COC(=O)C1=C(C)NC(C)=C(C(=O)OC(C)C)C1c1cccc2nonc12 (centres unmarked) [MMV001493, COC(=O)C1=C(C)NC(=C(C1c2cccc3nonc23)C(=O)OC(C)C)C]",97
13,"CN1CCCN(C(c2ccccc2)c2ccc(Cl)cc2)CC1 (centres unmarked) [MMV004168, CN1CCCN(CC1)C(c2ccccc2)c3ccc(Cl)cc3]",55
14,"O=C1Nc2ccc(Br)cc2C12NCCc1c2[nH]c2ccccc12 (centres unmarked) [MMV006239, Brc1ccc2NC(=O)C3(NCCc4c3[nH]c5ccccc45)c2c1]",106
15,"Cc1ccc2[nH]c3c(NCCN(C)C)ncnc3c2c1 [MMV006372, CN(C)CCNc1ncnc2c3cc(C)ccc3[nH]c12]",86
16,"COc1cc2ncnc(NC3CCN(Cc4ccccc4)CC3)c2cc1OC [MMV006741, COc1cc2ncnc(NC3CCN(Cc4ccccc4)CC3)c2cc1OC]",103
17,"Cc1cc(Cl)c(S(=O)(=O)N2CCCC2)cc1OCC(=O)NC1CCCCC1 [MMV006833, Cc1cc(Cl)c(cc1OCC(=O)NC2CCCCC2)S(=O)(=O)N3CCCC3]",98
18,"Cc1cc(NC(=O)c2ccc(S(=O)(=O)N(Cc3ccccc3)C(C)C)cc2)no1 [MMV007133, CC(C)N(Cc1ccccc1)S(=O)(=O)c2ccc(cc2)C(=O)Nc3cc(C)on3]",98
19,"COc1cc(OC)cc(C(=O)NCC2Cc3cc(Cl)cc(-c4ccncc4)c3O2)c1 (centres unmarked) [MMV007471, COc1cc(OC)cc(c1)C(=O)NCC2Cc3cc(Cl)cc(c3O2)c4ccncc4]",74
20,"Cc1cc(C)n(-c2ccc(NC(=O)C3CCN(Cc4cnc(C)s4)CC3)cc2)n1 [MMV007625, Cc1cc(C)n(n1)c2ccc(NC(=O)C3CCN(Cc4cnc(C)s4)CC3)cc2]",65
21,"CCOc1ccc(-c2nc(NC(=O)CS(=O)(=O)c3ccccc3)sc2C)cc1 [MMV007638, CCOc1ccc(cc1)c2nc(NC(=O)CS(=O)(=O)c3ccccc3)sc2C]",73

row,Compound,viability at 10 µM [%]
1,"O=C(NC1CC1)c1ccc(CSCc2ccccc2Cl)o1 [MMV007803, Clc1ccccc1CSCc2oc(cc2)C(=O)NC3CC3]",101
2,"Nc1ccc(C(=O)Nc2ccc(-c3nc4ccccc4o3)cc2)cc1 [MMV007920, Nc1ccc(cc1)C(=O)Nc2ccc(cc2)c3oc4ccccc4n3]",83
3,"COc1ccc(CN2CCOc3ccc(C(C)(O)CN(C)C)cc3C2)cc1C (centres unmarked) [MMV008439, COc1ccc(CN2CCOc3ccc(cc3C2)C(C)(O)CN(C)C)cc1C]",94
4,"Cc1cc(C(=O)Nc2cnn(Cc3ccc(Cl)cc3Cl)c2)no1 [MMV009054, Cc1onc(c1)C(=O)Nc2cnn(Cc3ccc(Cl)cc3Cl)c2]",89
5,"O=C(C1CCN(c2nnnn2-c2ccccc2)CC1)N1CCc2ccccc2C1 [MMV009135, O=C(C1CCN(CC1)c2nnnn2c3ccccc3)N4CCc5ccccc5C4]",94
6,"COc1ccc(-c2cnc3ccc(NCc4ccc(S(N)(=O)=O)cc4)nn23)cn1 [MMV010545, COc1ccc(cn1)c2cnc3ccc(NCc4ccc(cc4)S(=O)(=O)N)nn23]",97
7,"c1csc(-c2cnc3sc(NCC4CCOCC4)nn23)c1 [MMV010764, C(Nc1nn2c(cnc2s1)c3cccs3)C4CCOCC4]",94
8,"Cc1cc(Nc2ccc(C(F)(F)F)cc2)n2ccnc2n1 [MMV011229, CC1=NC2=NC=CN2C(NC3=CC=C(C(F)(F)F)C=C3)=C1]",89
9,"COc1ccc(CCN2CCC(NCc3cccc(N(C)C)c3)CC2)cc1 [MMV011511, COc1ccc(CCN2CCC(CC2)NCc3cccc(c3)N(C)C)cc1]",66
10,"NCC(=O)N1CCn2c(nc(-c3ccccc3)c2Nc2ccc3c(c2)OCO3)C1 [MMV011691, NCC(=O)N1CCn2c(C1)nc(c2Nc3ccc4OCOc4c3)c5ccccc5]",120
11,"FC(F)(F)c1cnc(Sc2nnc(-c3ccncc3)o2)c(Cl)c1 [MMV011765, FC(F)(F)c1cnc(Sc2oc(nn2)c3ccncc3)c(Cl)c1]",85
12,"Cc1ccc(NC(=O)c2nc[nH]c2C(=O)Nc2nc3ccccc3[nH]2)c(C)c1 [MMV011903, Cc1ccc(NC(=O)c2nc[nH]c2C(=O)Nc3nc4ccccc4[nH]3)c(C)c1]",10
13,"Cc1nc2ccccn2c1C(=O)NCc1ccc(Cl)cc1 [MMV012074, Cc1nc2ccccn2c1C(=O)NCc3ccc(Cl)cc3]",102
14,"Cc1cc(Nc2ccncc2)n2nc(C)c(-c3ccccc3Cl)c2n1 [MMV016136, Cc1cc(Nc2ccncc2)n3nc(C)c(c4ccccc4Cl)c3n1]",113
15,"Cc1ccc(-c2cc(C(=O)Nc3cccnc3)c3cc(Br)ccc3n2)cc1 [MMV016838, Cc1ccc(cc1)-c1cc(c2cc(ccc2n1)Br)C(=O)Nc1cccnc1]",87
16,"Cc1cc(C)n2nc(C(=O)Nc3cc(C(F)(F)F)ccc3N3CCOCC3)nc2n1 [MMV019087, Cc1cc(C)n2nc(nc2n1)C(=O)Nc3cc(ccc3N4CCOCC4)C(F)(F)F]",74
17,"COc1ccc(C2CC(c3cccs3)=NN2C(=O)c2ccco2)cc1OC (centres unmarked) [MMV019234, COc1ccc(cc1OC)C2CC(=NN2C(=O)c3occc3)c4cccs4]",107
18,"CCC(NC(=O)c1ccccc1NC(=O)c1ccc(C)cc1)C(=O)OC (centres unmarked) [MMV019551, CCC(NC(=O)c1ccccc1NC(=O)c2ccc(C)cc2)C(=O)OC]",97
19,"CCN(CC)S(=O)(=O)c1ccc(Cl)c(C(=O)Nc2ccc3nc(C)sc3c2)c1 [MMV019721, CCN(CC)S(=O)(=O)c1ccc(Cl)c(c1)C(=O)Nc2ccc3nc(C)sc3c2]",62
20,"Cc1ccc(S(=O)(=O)N2CCN(C(=O)c3cc(-c4ccccc4)[nH]n3)CC2)cc1 [MMV019742, Cc1ccc(cc1)S(=O)(=O)N2CCN(CC2)C(=O)c3cc([nH]n3)c4ccccc4]",96
